Assay results from US11753446B2, “Beta-hairpin peptidomimetics” (POLYPHOR AG, priority 2014, dated 2023).
Where a SMILES comes first, the peptide text is derived from it. [ ]: non-standard residue; d: D form. Tle = CC(C)(C)[C@H](N)C(=O)O; dDab = NCC[C@@H](N)C(=O)O; Orn = NCCC[C@H](N)C(=O)O; Dab = NCC[C@H](N)C(=O)O; Dap = NC[C@H](N)C(=O)O

Assays:
[1] = system: human red blood cells (hRBC); assay: Hemolysis: hemolytic activity at 100 μg/mL, 1 h at 37° C.; settings: red cells of human, 1 h, 100
Outline: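 Peptides at 100 μg/mL incubated with washed 20% (v/v) human erythrocytes (~0.9×10^9 cells/mL) for 1 h at 37 °C with shaking. Released hemoglobin read at OD 540 nm in supernatant; 0% and 100% lysis from PBS/0.001% acetic acid and 2.5% Triton X-100.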

[2] = system: Escherichia coli ATCC 25922; type: cell-based; settings: ATCC 25922
Outline: (§1)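 Peptide activity was tested by NCCLS broth microdilution with slight modifications. Bacteria were diluted in cation-adjusted Mueller-Hinton II broth to approximately 10^6 CFU/mL against a 0.5 McFarland standard. They were then exposed to two-fold serial peptide dilutions in broth containing 0.002% final polysorbate 80.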

[3] = system: Klebsiella pneumoniae ATCC 13883; type: cell-based; settings: ATCC 13883
Outline: as §1

[4] = system: Acinetobacter baumannii DSM 30008; type: cell-based; settings: DSM 30008
Outline: as §1

Structure (SMILES)	Hemolysis at 100 μg/mL [1]	Escherichia coli ATCC 25922 MIC [2]	Klebsiella pneumoniae ATCC 13883 MIC [3]	Acinetobacter baumannii DSM 30008 MIC [4]
C[C@@H]1NC(=O)[C@H](C(C)(C)C)NC(=O)[C@H](CCN)NC(=O)[C@H](Cc2c[nH]c3ccccc23)NC(=O)[C@H](CCN)NC(=O)[C@@H](CCN)NC(=O)[C@H](CCCN)NC(=O)[C@H](CCN)NC(=O)[C@H](Cc2ccc(O)cc2)NC(=O)[C@H](CN)NC(=O)[C@H](Cc2ccccc2)NC(=O)[C@@H]2CCCN2C(=O)[C@@H](CCN)NC(=O)[C@H](CO)NC1=O [Example 50, cyclo(-Phe-Dap-Tyr-Dab-Orn-^DDab-Dab-Trp-Dab-tBuGly-Ala-Ser-^DDab-Pro-)] (cyclo(AS[dDab]PF[Dap]Y[Dab][Orn][dDab][Dab]W[Dab][Tle]))	11%	1 µg/mL	0.5 µg/mL	2 µg/mL
CC(C)C[C@@H]1NC(=O)[C@H](CCN)NC(=O)[C@@H](CCN)NC(=O)[C@H](C(C)C)NC(=O)[C@@H]2CSSC[C@H](NC1=O)C(=O)N[C@@H](Cc1ccc(O)cc1)C(=O)N[C@@H](CC(N)=O)C(=O)N[C@@H](CCCN)C(=O)N[C@H](CCN)C(=O)N[C@@H](CCN)C(=O)N[C@@H](Cc1c[nH]c3ccccc13)C(=O)N[C@@H](CO)C(=O)N[C@@H](Cc1ccc(O)cc1)C(=O)N2 [Example 51, cyclo(-Leu-Cys-Tyr-Asn-Orn-^DDab-Dab-Trp-Ser-Tyr-Cys-Val-^DDab-Dab-)] (HELM PEPTIDE1{C.V.[NCC[C@@H](N[*:1])C(=O)[*:2]].[Dab].L.C.Y.N.[Orn].[NCC[C@@H](N[*:1])C(=O)[*:2]].[Dab].W.S.Y}$PEPTIDE1,PEPTIDE1,1:R3-6:R3|PEPTIDE1,PEPTIDE1,1:R1-14:R2$$$V2.0)	2%	0.75 µg/mL	0.75 µg/mL	0.75 µg/mL
CC(C)C[C@@H]1NC(=O)[C@H](CCCNC(=N)N)NC(=O)[C@@H](CCN)NC(=O)[C@H](C(C)C)NC(=O)[C@@H]2CSSC[C@H](NC1=O)C(=O)N[C@@H](Cc1ccc(O)cc1)C(=O)N[C@@H](CO)C(=O)N[C@@H](CCCN)C(=O)N[C@H](CCN)C(=O)N[C@@H](CCN)C(=O)N[C@@H](Cc1c[nH]c3ccccc13)C(=O)N[C@@H](CC(N)=O)C(=O)N[C@@H](Cc1ccc(O)cc1)C(=O)N2 [Example 52, cyclo(-Leu-Cys-Tyr-Ser-Orn-^DDab-Dab-Trp-Asn-Tyr-Cys-Val-^DDab-Arg-)] (HELM PEPTIDE1{C.V.[NCC[C@@H](N[*:1])C(=O)[*:2]].R.L.C.Y.S.[Orn].[NCC[C@@H](N[*:1])C(=O)[*:2]].[Dab].W.N.Y}$PEPTIDE1,PEPTIDE1,1:R3-6:R3|PEPTIDE1,PEPTIDE1,1:R1-14:R2$$$V2.0)	1%	0.75 µg/mL	1.5 µg/mL	1.25 µg/mL
CC(C)C[C@@H]1NC(=O)[C@H](CCCNC(=N)N)NC(=O)[C@@H](CCN)NC(=O)[C@H](C(C)C)NC(=O)[C@@H]2CSSC[C@H](NC1=O)C(=O)N[C@@H](Cc1ccc(O)cc1)C(=O)N[C@@H](CC(N)=O)C(=O)N[C@@H](CCCN)C(=O)N[C@H](CCN)C(=O)N[C@@H](CCN)C(=O)N[C@@H](Cc1c[nH]c3ccccc13)C(=O)N[C@@H](CC(N)=O)C(=O)N[C@@H](Cc1ccc(O)cc1)C(=O)N2 [Example 53, cyclo(-Leu-Cys-Tyr-Asn-Orn-^DDab-Dab-Trp-Asn-Tyr-Cys-Val-^DDab-Arg-)] (HELM PEPTIDE1{C.V.[NCC[C@@H](N[*:1])C(=O)[*:2]].R.L.C.Y.N.[Orn].[NCC[C@@H](N[*:1])C(=O)[*:2]].[Dab].W.N.Y}$PEPTIDE1,PEPTIDE1,1:R3-6:R3|PEPTIDE1,PEPTIDE1,1:R1-14:R2$$$V2.0)	1%	1 µg/mL	1 µg/mL	1.5 µg/mL
